Reference: ChEMBL document CHEMBL1201862, “PubChem BioAssay data set” (2004)
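Five compound concentrations were applied to cells in 96-well plates for 48 hours; endpoints were derived by simple linear interpolation of the resulting dose-response curve. GI50 marks 50% less growth.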 Calls of active or inactive are those of the source. Cut-off read from the data, not from the text of the source: active = GI50 up to about 1.1 µM and inactive = higher.

Legend:
Assay in all cases: NCI tumour cell line growth inhibition, 48 h
[1] = tested on: SR
[2] = tested on: MDA-MB-231
[3] = tested on: IGROV-1
[4] = tested on: OVCAR-8
[5] = tested on: HCT-116
[6] = tested on: K562
[7] = tested on: TK-10
[8] = tested on: SK-MEL-5
[9] = tested on: SNB-75
[10] = tested on: NCI-H460
[11] = tested on: SK-MEL-28
[12] = tested on: OVCAR-3
[13] = tested on: OVCAR-4
[14] = tested on: SW-620
[15] = tested on: HOP-62
[16] = tested on: NCI/ADR-RES
[17] = tested on: SF-295
[18] = tested on: MCF7
[19] = tested on: T47D
[20] = tested on: HL-60

Measured: GI50

Cc1ccc(-c2nc(-c3cnccn3)n(C3OC(CO)C(O)C(O)C3O)n2)cc1 (stereo not given)
inactive: [1] > 100 µM | [2] > 100 µM | [3] > 100 µM | [4] > 100 µM | [5] > 100 µM | [6] > 100 µM | [7] > 100 µM | [8] > 100 µM | [9] > 100 µM | [10] > 100 µM | [11] > 100 µM | [12] > 100 µM | [13] > 100 µM | [14] > 100 µM | [15] > 100 µM | [16] > 100 µM | [17] > 100 µM | [18] > 100 µM | [19] > 100 µM | [20] > 100 µM

CC(=O)N(C(C)=O)c1ncc(-n2nc(-c3ccccc3)cc2-c2ccccc2)c(-c2ccccc2)n1
inactive: [1] 3.5 µM | [2] > 10 µM | [3] > 10 µM | [4] > 10 µM | [5] 4.82 µM | [6] > 10 µM | [7] > 10 µM | [8] 4.12 µM | [9] > 10 µM | [10] > 10 µM | [11] > 10 µM | [12] > 10 µM | [13] > 10 µM | [14] > 10 µM | [15] > 10 µM | [16] > 10 µM | [17] > 10 µM | [18] 5.07 µM | [19] > 10 µM | [20] 7.83 µM
